# From the supplement of paper PMC10307832
# Columns and labels:
# Assay in all cases: relative viability (nuclei count vs DMSO), 5 days (fraction); higher = more cells survive
# [1] = compound: C[C@@]1(C(=O)Nc2ccc(F)nc2)CCCN1c1nc(Nc2cc(C3CC3)n[nH]2)c2cccn2n1 + N=C(N)NC(=N)NCCc1ccccc1 [Phenformin] (partner 250 µM)
# How it was run: (§1)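 Lung cancer cell lines in 1536-well plates got either a single drug or a fixed anchor-drug dose together with five library-drug doses (not always all listed) in √10 steps, by pin tool, on the day after seeding. Nuclei were counted after 5 days, and relative viability is the treated-to-vehicle ratio of nuclei counts. Values are medians of duplicate plates.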
# Motesanib + Tozasertib = compound: CC1(C)CNc2cc(NC(=O)c3cccnc3NCc3ccncc3)ccc21 [Motesanib] + Cc1cc(Nc2cc(N3CCN(C)CC3)nc(Sc3ccc(NC(=O)C4CC4)cc3)n2)n[nH]1 [Tozasertib] (partner 0.1 µM)
# How it was run: as §1
# Motesanib + Pemetrexed = compound: CC1(C)CNc2cc(NC(=O)c3cccnc3NCc3ccncc3)ccc21 [Motesanib] + Nc1nc2[nH]cc(CCc3ccc(C(=O)N[C@@H](CCC(=O)O)C(=O)O)cc3)c2c(=O)[nH]1 [Pemetrexed] (partner 0.2 µM)
# How it was run: as §1
# Motesanib + AZD7762 = compound: CC1(C)CNc2cc(NC(=O)c3cccnc3NCc3ccncc3)ccc21 [Motesanib] + NC(=O)Nc1cc(-c2cccc(F)c2)sc1C(=O)N[C@H]1CCCNC1 [AZD7762] (partner 0.2 µM)
# How it was run: as §1
Cell Line,relative viability ([1]; first compound 0.04 µM),relative viability ([1]; first compound 0.1265 µM),relative viability ([1]; first compound 0.4 µM),relative viability ([1]; first compound 1.265 µM),relative viability (Motesanib + Tozasertib; first compound 0.01 µM),relative viability (Motesanib + Tozasertib; first compound 0.03162 µM),relative viability (Motesanib + Tozasertib; first compound 0.1 µM),relative viability (Motesanib + Tozasertib; first compound 0.3162 µM),relative viability (Motesanib + Tozasertib; first compound 1 µM),relative viability (Motesanib + Pemetrexed; first compound 0.01 µM),relative viability (Motesanib + Pemetrexed; first compound 0.03162 µM),relative viability (Motesanib + Pemetrexed; first compound 0.1 µM),relative viability (Motesanib + Pemetrexed; first compound 0.3162 µM),relative viability (Motesanib + Pemetrexed; first compound 1 µM),relative viability (Motesanib + AZD7762; first compound 0.01 µM),relative viability (Motesanib + AZD7762; first compound 0.03162 µM),relative viability (Motesanib + AZD7762; first compound 0.1 µM),relative viability (Motesanib + AZD7762; first compound 0.3162 µM),relative viability (Motesanib + AZD7762; first compound 1 µM)
201T,0.346,0.355,0.32,0.36,0.888,0.833,1.05,0.923,0.97,0.307,0.326,0.318,0.296,0.342,0.592,0.617,0.734,0.637,0.672
A549,0.131,0.155,0.101,0.281,,,,,,,,,,,,,,,
A-427,0.341,0.265,0.229,0.211,0.185,0.191,0.24,0.236,0.173,0.963,0.912,0.963,0.992,0.972,0.709,0.733,0.821,0.775,0.668
ABC-1,0.182,0.211,0.216,0.216,0.174,0.188,0.226,0.197,0.149,,,,,,0.811,1,0.762,0.904,0.846
BEN,0.291,0.229,0.272,0.281,0.505,0.529,0.627,0.547,0.543,0.539,0.774,0.73,0.582,0.749,0.617,0.877,0.645,0.576,0.799
CAL-12T,0.575,0.507,0.464,0.207,0.348,0.254,0.351,0.384,0.371,1.17,1.17,1.19,1.16,1.08,0.518,0.637,0.684,0.69,0.578
COR-L23,0.454,0.407,0.406,0.241,0.238,0.141,0.456,0.193,0.191,0.186,0.198,0.187,0.197,0.184,,,,,
COR-L 105,0.422,0.368,0.346,0.393,0.341,0.33,0.327,0.381,0.345,1.19,0.96,1.34,1.12,1.33,,,,,
ChaGo-K-1,0.403,0.283,0.296,0.4,0.236,0.237,0.219,0.252,0.22,0.262,0.249,0.227,0.235,0.237,0.89,0.812,0.804,0.836,0.795
EKVX,0.204,0.215,0.218,0.221,0.368,0.381,0.356,0.432,0.422,0.414,0.377,0.368,0.394,0.406,0.716,0.653,0.684,0.68,0.665
EMC-BAC-2,0.472,0.437,0.399,0.313,0.286,0.238,0.351,0.309,0.281,0.412,0.408,0.471,0.412,0.524,1.07,1.1,1.09,1.2,1.04
EPLC-272H,0.315,,0.251,0.275,0.293,0.234,,0.253,0.253,0.656,0.285,0.254,0.273,0.243,0.145,0.268,0.151,0.21,0.267
H3255,0.298,0.372,0.346,0.332,0.549,0.671,0.742,0.513,0.608,0.552,0.59,0.602,0.589,0.587,0.846,0.986,0.884,0.816,0.909
HARA,0.431,0.386,0.395,0.442,0.117,0.0896,0.097,0.133,0.0863,0.194,0.207,0.128,0.185,0.212,0.17,0.277,0.48,0.362,0.207
HCC-15,0.387,0.209,0.27,0.259,0.454,0.278,0.372,0.451,0.392,0.212,0.203,0.188,0.179,0.202,1.34,1.18,1.06,1.36,1.33
HCC-44,0.178,0.116,0.134,0.0862,0.944,0.721,0.941,0.998,0.974,0.656,0.653,0.788,0.724,0.605,0.93,1.05,1.13,1.08,1.02
HCC-78,0.798,0.452,0.346,0.319,0.486,0.373,0.476,0.355,0.403,0.902,0.897,0.858,,0.906,0.657,0.547,0.907,,0.795
HCC-366,0.66,0.54,0.596,0.186,0.124,0.115,0.126,0.139,0.0819,0.189,0.154,0.18,0.147,0.143,0.278,0.214,0.46,0.248,0.207
HCC-827,0.431,0.402,0.371,0.443,0.405,0.425,0.464,0.48,0.431,0.252,0.301,0.271,0.277,0.29,0.216,0.29,0.196,0.213,0.175
